Results on 17 molecules are retold here after patent US9056858B2, “Indazole and pyrazolopyridine compounds as CCR1 receptor antagonists” (Boehringer Ingelheim International GmbH, priority 2009, dated 2015).

This test addresses T1, CCR1 (Homo sapiens, UniProt P32246).
T1 construct: host or cells: Non-adherent cells
T1 sequence (P32246 1-355): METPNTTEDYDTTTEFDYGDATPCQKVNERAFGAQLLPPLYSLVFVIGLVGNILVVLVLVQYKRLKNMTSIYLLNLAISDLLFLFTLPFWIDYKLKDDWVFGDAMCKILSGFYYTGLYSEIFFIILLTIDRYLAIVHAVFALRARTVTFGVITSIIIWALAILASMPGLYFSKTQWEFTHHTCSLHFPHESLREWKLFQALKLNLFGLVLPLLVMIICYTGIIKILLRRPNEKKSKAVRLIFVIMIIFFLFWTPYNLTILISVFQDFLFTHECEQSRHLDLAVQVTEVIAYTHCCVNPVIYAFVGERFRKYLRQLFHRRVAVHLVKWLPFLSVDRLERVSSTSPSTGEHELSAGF
As to the kind of experiment: functional cellular assay measuring calcium flux in CCR1 transfected cells (block of CCR1/MIP-1α interaction). Type of test: cell-based. Particulars: cells stably expressing recombinant CCR1 and G-alpha-16, MIP-1alpha added at EC80. The method, then: Compounds are assessed for the ability to block the interaction of CCR1 and MIP-1α in a functional cellular assay measuring calcium flux in CCR1 transfected cells.
Non-adherent cells purchased from Chemicon Corporation (HTS005C), stably expressing recombinant CCR1 and G-alpha-16 are grown in RPMI 1640 medium (Mediatech 10-080-CM) supplemented with 10% FBS, 0.4 mg/mL Geneticin and penicillin/streptomycin. On the day of the assay, the cells are loaded with Calcium 4 dye (Molecular Devices R7448) with Probenecid (Invitrogen P346400) at 8E5 cells/mL for 1 hour at room temperature. After 1 hour, they are seeded in a 384-well tissue culture-treated plate at a density of 20,000 cells/well. Appropriately diluted test compound is added to the well to achieve a top concentration of 3,000 nM (diluted 4-fold with 10 doses total). The final concentration of DMSO is 1%. The buffer is HBSS (Invitrogen 14025) with 20 mM HEPES at pH 7.4. The cells incubate 30 minutes at 37 C and then 30 minutes at room temperature. The plates are transferred to the […] FDSS6000 where MIP-1alpha in 1% BSA is added at the EC80 final concentration. All plates must be read within 4 hours of the start of dye-loading. Wells +/− MIP-1alpha containing diluted DMSO instead of compound serve as the controls. Data are analyzed using Activity Base software.
For orientation: A change in cytosolic calcium serves as a functional read-out for many receptors and channels.

For orientation: pIC50 means the IC50 on a negative log10 scale, so that one unit is a factor of ten.

pIC50: −log10 of the molar value.

`N#CCNC(=O)c1cccc(C2(NC(=O)c3cncc4c3cnn4-c3ccc(F)cc3)CC2)c1` [1-(4-Fluoro-phenyl)-1H-pyrazolo[3,4-c]pyridine-4-carboxylic acid {1-[3-(cyanomethyl-carbamoyl)-phenyl]-cyclopropyl}-amide]: the pIC50 was 7.46. The figure for `CNC(=O)CNC(=O)c1cccc(C2(NC(=O)c3cncc4c3cnn4-c3ccc(F)cc3)CC2)c1` [1-(4-Fluoro-phenyl)-1H-pyrazolo[3,4-c]pyridine-4-carboxylic acid {1-[3-(methylcarbamoylmethyl-carbamoyl)-phenyl]-cyclopropyl}-amide] is 7.11. The figure for `CC(=O)N(C)c1ccc(C2(NC(=O)c3cncc4c3cnn4-c3ccc(F)cc3)CC2)cn1` [1-(4-Fluoro-phenyl)-1H-pyrazolo[3,4-c]pyridine-4-carboxylic acid {1-[6-(acetyl-methyl-amino)-pyridin-3-yl]-cyclopropyl}-amide] is 7.70.

`CS(=O)(=O)c1cc(C2(NC(=O)c3cc(I)cc4c3cnn4-c3ccc(F)cc3)CC2)ccn1` [1-(4-Fluoro-phenyl)-6-iodo-1H-indazole-4-carboxylic acid [1-(2-methanesulfonyl-pyridin-4-yl)-cyclopropyl]-amide]: the pIC50 is 7.89. For the molecule `CS(=O)(=O)c1cc(C(=O)NC2(c3ccnc(S(C)(=O)=O)c3)CC2)c2cnn(-c3ccc(F)cc3)c2c1` [1-(4-Fluoro-phenyl)-6-methanesulfonyl-1H-indazole-4-carboxylic acid [1-(2-methanesulfonyl-pyridin-4-yl)-cyclopropyl]-amide], the pIC50 is 8.15.

For the molecule `COC(=O)C1(NC(=O)c2cccc(C3(NC(=O)c4cncc5c4cnn5-c4ccc(F)cc4)CC3)c2)CC1` [1-[3-(1-{[1-(4-Fluoro-phenyl)-1H-pyrazolo[3,4-c]pyridine-4-carbonyl]-amino}-cyclopropyl)-benzoylamino]-cyclopropanecarboxylic acid methyl ester], the pIC50 was 7.01. The figure for `COC(=O)c1cccc(C2(NC(=O)c3cncc4c3cnn4-c3ccc(F)cc3)CC2)c1` [3-(1-{[1-(4-Fluoro-phenyl)-1H-pyrazolo[3,4-c]pyridine-4-carbonyl]-amino}-cyclopropyl)-benzoic acid methyl ester] is 7.96; for `O=C(O)c1cccc(C2(NC(=O)c3cncc4c3cnn4-c3ccc(F)cc3)CC2)c1` [3-(1-{[1-(4-Fluoro-phenyl)-1H-pyrazolo[3,4-c]pyridine-4-carbonyl]-amino}-cyclopropyl)-benzoic acid] it is 7.57; for `COC(=O)CCS(=O)(=O)c1cccc(C2(NC(=O)c3cncc4c3cnn4-c3ccc(F)cc3)CC2)c1` [3-[3-(1-{[1-(4-Fluoro-phenyl)-1H-pyrazolo[3,4-c]pyridine-4-carbonyl]-amino}-cyclopropyl)-benzenesulfonyl]-propionic acid methyl ester] it is 7.77. As to `COC(=O)CCS(=O)(=O)c1ccc(C2(NC(=O)c3cncc4c3cnn4-c3ccc(F)cc3)CC2)cn1` [3-[5-(1-{[1-(4-Fluoro-phenyl)-1H-pyrazolo[3,4-c]pyridine-4-carbonyl]-amino}-cyclopropyl)-pyridine-2-sulfonyl]-propionic acid methyl ester], the pIC50 was 8.00. Consider `O=C(O)c1ccc(C2(NC(=O)c3cncc4c3cnn4-c3ccc(F)cc3)CC2)cc1` [4-(1-{[1-(4-Fluoro-phenyl)-1H-pyrazolo[3,4-c]pyridine-4-carbonyl]-amino}-cyclopropyl)-benzoic acid], for which the pIC50 is 7.16. For `CS(=O)(=O)c1cc(C2(NC(=O)c3cc(Br)cc4c3cnn4-c3ccc(F)cc3)CC2)ccn1` [6-Bromo-1-(4-fluoro-phenyl)-1H-indazole-4-carboxylic acid [1-(2-methanesulfonyl-pyridin-4-yl)-cyclopropyl]-amide] the value was 8.70. The figure for `CS(=O)(=O)c1cc(C2(NC(=O)c3cc(C#N)cc4c3cnn4-c3ccc(F)cc3)CC2)ccn1` [6-Cyano-1-(4-fluoro-phenyl)-1H-indazole-4-carboxylic acid [1-(2-methanesulfonyl-pyridin-4-yl)-cyclopropyl]-amide] is 10.00; for `COC(=O)[C@H](C)NC(=O)c1cccc(C2(NC(=O)c3cncc4c3cnn4-c3ccc(F)cc3)CC2)c1` [(S)-2-[3-(1-{[1-(4-Fluoro-phenyl)-1H-pyrazolo[3,4-c]pyridine-4-carbonyl]-amino}-cyclopropyl)-benzoylamino]-propionic acid methyl ester] it is 7.10. The figure for `CC(C)(C)OC(=O)NCc1ccnc(C2(NC(=O)c3cncc4c3cnn4-c3ccc(F)cc3)CC2)c1` [[2-(1-{[1-(4-Fluoro-phenyl)-1H-pyrazolo[3,4-c]pyridine-4-carbonyl]-amino}-cyclopropyl)-pyridin-4-ylmethyl]-carbamic acid tert-butyl ester] is 6.55; for `COC(=O)CNC(=O)c1cccc(C2(NC(=O)c3cncc4c3cnn4-c3ccc(F)cc3)CC2)c1` [[3-(1-{[1-(4-Fluoro-phenyl)-1H-pyrazolo[3,4-c]pyridine-4-carbonyl]-amino}-cyclopropyl)-benzoylamino]-acetic acid methyl ester] it is 8.30; for `CC(C)(C)OC(=O)NCc1ccc(C2(NC(=O)c3cncc4c3cnn4-c3ccc(F)cc3)CC2)nc1` [[6-(1-{[1-(4-Fluoro-phenyl)-1H-pyrazolo[3,4-c]pyridine-4-carbonyl]-amino}-cyclopropyl)-pyridin-3-ylmethyl]-carbamic acid tert-butyl ester] it is 7.09.
